Measurements from ChEMBL document CHEMBL2034855, “(18)F-labeled phenyldiazenyl benzothiazole for in vivo imaging of neurofibrillary tangles in Alzheimer's disease brains” (ACS Med Chem Lett, 2012).
The source made the active and inactive calls. The rule behind the calls is not given here.

How the values were obtained:
[1] = Octanol-phosphate buffer partition coefficient, log P of the compound at 0.37 MBq after 10 mins by gamma counting; format: physicochemical
Brain [2] = assay: Biodistribution in mouse brain at 64.5 kBq, iv measured 2 mins post injection by gamma counting; format: ADME, organism-based; conditions: in vivo
Brain [3] = assay: Biodistribution in mouse brain at 64.5 kBq, iv measured 60 mins post injection by gamma counting; format: ADME, organism-based; conditions: in vivo, 1 h
Bone [4] = assay: Biodistribution in mouse bone at 64.5 kBq, iv measured 30 mins post injection by gamma counting; format: ADME, organism-based, Bone element; conditions: in vivo, 0.5 h
Liver [5] = assay: Biodistribution in mouse liver at 64.5 kBq, iv measured 30 mins post injection by gamma counting; format: ADME, organism-based; conditions: in vivo, 0.5 h
Stomach [6] = assay: Biodistribution in mouse stomach at 64.5 kBq, iv measured 60 mins post injection by gamma counting; format: ADME, organism-based; conditions: in vivo, 1 h
Blood [7] = assay: Biodistribution in mouse blood at 64.5 kBq, iv measured 2 mins post injection by gamma counting; format: ADME, organism-based; conditions: in vivo
Kidney [8] = assay: Biodistribution in mouse kidney at 64.5 kBq, iv measured 60 mins post injection by gamma counting; format: ADME, organism-based; conditions: in vivo, 1 h
Lung [9] = assay: Biodistribution in mouse lung at 64.5 kBq, iv measured 60 mins post injection by gamma counting; format: ADME, organism-based; conditions: in vivo, 1 h
Pancreas [10] = assay: Biodistribution in mouse pancreas at 64.5 kBq, iv measured 60 mins post injection by gamma counting; format: ADME, organism-based; conditions: in vivo, 1 h
Pancreas [11] = assay: Biodistribution in mouse pancreas at 64.5 kBq, iv measured 30 mins post injection by gamma counting; format: ADME, organism-based; conditions: in vivo, 0.5 h
Brain [12] = assay: Biodistribution in mouse brain at 64.5 kBq, iv measured 30 mins post injection by gamma counting; format: ADME, organism-based; conditions: in vivo, 0.5 h
Heart [13] = assay: Biodistribution in mouse heart at 64.5 kBq, iv measured 60 mins post injection by gamma counting; format: ADME, organism-based; conditions: in vivo, 1 h
Blood [14] = assay: Biodistribution in mouse blood at 64.5 kBq, iv measured 60 mins post injection by gamma counting; format: ADME, organism-based; conditions: in vivo, 1 h
Stomach [15] = assay: Biodistribution in mouse stomach at 64.5 kBq, iv measured 10 mins post injection by gamma counting; format: ADME, organism-based; conditions: in vivo
Liver [16] = assay: Biodistribution in mouse liver at 64.5 kBq, iv measured 2 mins post injection by gamma counting; format: ADME, organism-based; conditions: in vivo
Lung [17] = assay: Biodistribution in mouse lung at 64.5 kBq, iv measured 10 mins post injection by gamma counting; format: ADME, organism-based; conditions: in vivo
Spleen [18] = assay: Biodistribution in mouse spleen at 64.5 kBq, iv measured 10 mins post injection by gamma counting; format: ADME, organism-based; conditions: in vivo
Stomach [19] = assay: Biodistribution in mouse stomach at 64.5 kBq, iv measured 30 mins post injection by gamma counting; format: ADME, organism-based; conditions: in vivo, 0.5 h
Lung [20] = assay: Biodistribution in mouse lung at 64.5 kBq, iv measured 2 mins post injection by gamma counting; format: ADME, organism-based; conditions: in vivo
Kidney [21] = assay: Biodistribution in mouse kidney at 64.5 kBq, iv measured 30 mins post injection by gamma counting; format: ADME, organism-based; conditions: in vivo, 0.5 h
Stomach [22] = assay: Biodistribution in mouse stomach at 64.5 kBq, iv measured 2 mins post injection by gamma counting; format: ADME, organism-based; conditions: in vivo
Brain [23] = assay: Drug uptake in normal human brain at 92.5 kBq after 2 hrs by […]; format: ADME, tissue-based
Intestine [24] = assay: Biodistribution in mouse intestine at 64.5 kBq, iv measured 30 mins post injection by gamma counting; format: ADME, organism-based; conditions: in vivo, 0.5 h
Intestine [25] = assay: Biodistribution in mouse intestine at 64.5 kBq, iv measured 2 mins post injection by gamma counting; format: ADME, organism-based; conditions: in vivo
Intestine [26] = assay: Biodistribution in mouse intestine at 64.5 kBq, iv measured 10 mins post injection by gamma counting; format: ADME, organism-based; conditions: in vivo
Heart [27] = assay: Biodistribution in mouse heart at 64.5 kBq, iv measured 2 mins post injection by gamma counting; format: ADME, organism-based; conditions: in vivo
Spleen [28] = assay: Biodistribution in mouse spleen at 64.5 kBq, iv measured 30 mins post injection by gamma counting; format: ADME, organism-based; conditions: in vivo, 0.5 h
Spleen [29] = assay: Biodistribution in mouse spleen at 64.5 kBq, iv measured 2 mins post injection by gamma counting; format: ADME, organism-based; conditions: in vivo
Pancreas [30] = assay: Biodistribution in mouse pancreas at 64.5 kBq, iv measured 2 mins post injection by gamma counting; format: ADME, organism-based; conditions: in vivo
Heart [31] = assay: Biodistribution in mouse heart at 64.5 kBq, iv measured 10 mins post injection by gamma counting; format: ADME, organism-based; conditions: in vivo
Heart [32] = assay: Biodistribution in mouse heart at 64.5 kBq, iv measured 30 mins post injection by gamma counting; format: ADME, organism-based; conditions: in vivo, 0.5 h
Brain [33] = assay: Biodistribution in mouse brain at 64.5 kBq, iv measured 10 mins post injection by gamma counting; format: ADME, organism-based; conditions: in vivo
Blood [34] = assay: Biodistribution in mouse blood at 64.5 kBq, iv measured 10 mins post injection by gamma counting; format: ADME, organism-based; conditions: in vivo
[35] = biological target: T1, Microtubule-associated protein tau (Homo sapiens, UniProt P10636); assay: Binding affinity to recombinant human tau expressed in Escherichia coli after 30 mins by fluorescence assay
Bone [36] = assay: Biodistribution in mouse bone at 64.5 kBq, iv measured 10 mins post injection by gamma counting; format: ADME, organism-based, Bone element; conditions: in vivo
Kidney [37] = assay: Biodistribution in mouse kidney at 64.5 kBq, iv measured 10 mins post injection by gamma counting; format: ADME, organism-based; conditions: in vivo
Liver [38] = assay: Biodistribution in mouse liver at 64.5 kBq, iv measured 10 mins post injection by gamma counting; format: ADME, organism-based; conditions: in vivo
Liver [39] = assay: Biodistribution in mouse liver at 64.5 kBq, iv measured 60 mins post injection by gamma counting; format: ADME, organism-based; conditions: in vivo, 1 h
Blood [40] = assay: Biodistribution in mouse blood at 64.5 kBq, iv measured 30 mins post injection by gamma counting; format: ADME, organism-based; conditions: in vivo, 0.5 h
Bone [41] = assay: Biodistribution in mouse bone at 64.5 kBq, iv measured 60 mins post injection by gamma counting; format: ADME, organism-based, Bone element; conditions: in vivo, 1 h
Spleen [42] = assay: Biodistribution in mouse spleen at 64.5 kBq, iv measured 60 mins post injection by gamma counting; format: ADME, organism-based; conditions: in vivo, 1 h
[43] = Binding affinity to amyloid beta (1 to 42) aggregates after 30 mins by fluorescence assay
Kidney [44] = assay: Biodistribution in mouse kidney at 64.5 kBq, iv measured 2 mins post injection by gamma counting; format: ADME, organism-based; conditions: in vivo
Intestine [45] = assay: Biodistribution in mouse intestine at 64.5 kBq, iv measured 60 mins post injection by gamma counting; format: ADME, organism-based; conditions: in vivo, 1 h
Lung [46] = assay: Biodistribution in mouse lung at 64.5 kBq, iv measured 30 mins post injection by gamma counting; format: ADME, organism-based; conditions: in vivo, 0.5 h
Pancreas [47] = assay: Biodistribution in mouse pancreas at 64.5 kBq, iv measured 10 mins post injection by gamma counting; format: ADME, organism-based; conditions: in vivo
Bone [48] = assay: Biodistribution in mouse bone at 64.5 kBq, iv measured 2 mins post injection by gamma counting; format: ADME, organism-based, Bone element; conditions: in vivo
[49] = biological target: T1, Microtubule-associated protein tau; assay: Displacement of Thioflavin S from recombinant human tau expressed in Escherichia coli after 30 mins by fluorescence assay
Homo sapiens [50] = species on record: Homo sapiens; assay: Selectivity ratio Ki for amyloid beta (1 to 42) aggregates to Ki for recombinant human tau
Homo sapiens [51] = species on record: Homo sapiens; assay: Binding affinity to neurofibrillary tangles in human alzheimer's disease patient brain at 92.5 kBq after 30 mins by immunohistological staining
Homo sapiens [52] = species on record: Homo sapiens; assay: Binding affinity to senile plaques in human alzheimer's disease patient brain at 92.5 kBq after 30 mins by immunohistological staining
[53] = Binding affinity to amyloid beta (1 to 42) aggregates assessed per nanomolar of protein after 30 mins by fluorescence assay; conditions: tested as the 18F-labelled form
[54] = Displacement of Thioflavin S from amyloid beta (1 to 42) aggregates after 30 mins by fluorescence assay
[55] = biological target: T1, Microtubule-associated protein tau; assay: Binding affinity to tau protein in human alzheimer's disease patient brain white matter at 92.5 kBq after 2 hrs by immunohistological staining; format: tissue-based; conditions: tested as the 18F-labelled form
[56] = biological target: Amyloid-beta precursor protein (Homo sapiens) (UniProt P05067); assay: Binding affinity to amyloid beta (1 to 42) aggregates in human alzheimer's disease patient brain white matter at 92.5 kBq after 2 hrs by immunohistological staining; format: tissue-based; conditions: tested as the 18F-labelled form
[57] = biological target: T1, Microtubule-associated protein tau; assay: Binding affinity to recombinant human tau expressed in Escherichia coli assessed per nanomolar of protein after 30 mins by fluorescence assay; conditions: tested as the 18F-labelled form

T1 sequence (P10636 whole entry): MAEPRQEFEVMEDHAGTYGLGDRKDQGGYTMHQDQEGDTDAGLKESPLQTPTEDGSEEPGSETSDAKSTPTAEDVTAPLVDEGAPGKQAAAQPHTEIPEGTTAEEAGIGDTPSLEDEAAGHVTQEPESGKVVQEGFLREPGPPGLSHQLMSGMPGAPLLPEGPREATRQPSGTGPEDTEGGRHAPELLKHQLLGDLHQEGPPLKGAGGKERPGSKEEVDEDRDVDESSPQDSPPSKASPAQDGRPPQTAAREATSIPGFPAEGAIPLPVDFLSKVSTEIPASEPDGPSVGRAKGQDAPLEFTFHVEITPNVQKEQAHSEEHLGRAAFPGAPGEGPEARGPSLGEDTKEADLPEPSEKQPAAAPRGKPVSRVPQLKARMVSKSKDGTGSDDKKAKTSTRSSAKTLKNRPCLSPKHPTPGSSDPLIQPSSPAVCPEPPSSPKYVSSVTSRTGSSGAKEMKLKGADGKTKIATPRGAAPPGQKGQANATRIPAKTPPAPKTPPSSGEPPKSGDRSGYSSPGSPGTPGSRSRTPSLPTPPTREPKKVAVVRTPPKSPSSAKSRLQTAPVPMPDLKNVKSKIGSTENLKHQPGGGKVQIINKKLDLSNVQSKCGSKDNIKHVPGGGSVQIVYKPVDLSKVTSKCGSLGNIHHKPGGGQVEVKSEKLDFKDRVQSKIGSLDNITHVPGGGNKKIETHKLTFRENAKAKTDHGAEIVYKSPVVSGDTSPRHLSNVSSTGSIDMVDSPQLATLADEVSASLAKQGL
Sequence of Amyloid-beta precursor protein (Homo sapiens) (P05067 whole entry): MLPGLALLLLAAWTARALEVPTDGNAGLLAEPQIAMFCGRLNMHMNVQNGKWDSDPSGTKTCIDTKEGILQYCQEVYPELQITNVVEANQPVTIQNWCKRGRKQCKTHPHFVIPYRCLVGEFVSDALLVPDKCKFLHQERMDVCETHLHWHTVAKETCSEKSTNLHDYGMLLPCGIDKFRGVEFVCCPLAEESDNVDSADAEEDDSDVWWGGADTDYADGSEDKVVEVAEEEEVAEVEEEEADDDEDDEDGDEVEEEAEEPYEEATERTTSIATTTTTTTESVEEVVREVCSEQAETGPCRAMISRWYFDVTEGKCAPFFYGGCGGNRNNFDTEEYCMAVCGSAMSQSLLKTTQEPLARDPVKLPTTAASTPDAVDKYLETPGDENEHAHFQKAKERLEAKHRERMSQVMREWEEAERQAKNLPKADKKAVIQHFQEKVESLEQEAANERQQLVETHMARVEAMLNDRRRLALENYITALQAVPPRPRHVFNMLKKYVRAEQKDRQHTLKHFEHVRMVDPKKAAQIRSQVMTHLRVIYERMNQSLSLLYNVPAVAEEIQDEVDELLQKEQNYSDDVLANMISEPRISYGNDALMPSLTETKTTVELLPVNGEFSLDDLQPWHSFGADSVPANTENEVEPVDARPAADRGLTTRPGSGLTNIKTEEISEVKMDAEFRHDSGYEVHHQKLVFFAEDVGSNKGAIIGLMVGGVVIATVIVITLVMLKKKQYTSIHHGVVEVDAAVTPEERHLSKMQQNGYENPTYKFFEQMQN

Structure (SMILES): CN(C)c1ccc(/N=N/c2nc3ccc([125I])cc3s2)cc1
- logP at 10 min [1]: 3.84
- Drug uptake (Brain [2]): 0.94 % ID/g
- Drug uptake (Brain [3]): 2.89 % ID/g

Structure (SMILES): CN(C)c1ccc(/N=N/c2nc3ccc(OCCOCCOCC[18F])cc3s2)cc1
- logP at 10 min [1]: 2.05
- Drug uptake (Bone [4]): 1.82 % ID/g
- Drug uptake (Liver [5]): 13.1 % ID/g
- Drug uptake (Stomach [6]): 3.37 %ID
- Drug uptake (Blood [7]): 3.04 % ID/g
- Drug uptake (Kidney [8]): 4 % ID/g
- Drug uptake (Lung [9]): 3.59 % ID/g
- Drug uptake (Pancreas [10]): 2.18 % ID/g
- Drug uptake (Pancreas [11]): 2.87 % ID/g
- Drug uptake (Brain [12]): 3.47 % ID/g
- Drug uptake (Heart [13]): 2.62 % ID/g
- Drug uptake (Blood [14]): 2.68 % ID/g
- Drug uptake (Stomach [15]): 1.42 %ID
- Drug uptake (Liver [16]): 20.2 % ID/g
- Drug uptake (Lung [17]): 4.37 % ID/g
- Drug uptake (Brain [2]): 4.28 % ID/g
- Drug uptake (Spleen [18]): 3.41 % ID/g
- Drug uptake (Stomach [19]): 2.69 %ID
- Drug uptake (Lung [20]): 13.5 % ID/g
- Drug uptake (Kidney [21]): 5.08 % ID/g
- Drug uptake (Stomach [22]): 1.11 %ID
- Drug uptake (Brain [23]): Not Active
- Drug uptake (Intestine [24]): 14.4 % ID/g
- Drug uptake (Intestine [25]): 2.94 % ID/g
- Drug uptake (Brain [3]): 2.53 % ID/g
- Drug uptake (Intestine [26]): 4.99 % ID/g
- Drug uptake (Heart [27]): 7.45 % ID/g
- Drug uptake (Spleen [28]): 2.71 % ID/g
- Drug uptake (Spleen [29]): 3.47 % ID/g
- Drug uptake (Pancreas [30]): 5.41 % ID/g
- Drug uptake (Heart [31]): 4.14 % ID/g
- Drug uptake (Heart [32]): 3.05 % ID/g
- Drug uptake (Brain [33]): 4.26 % ID/g
- Drug uptake (Blood [34]): 1.83 % ID/g
- Kd [35]: 0.0448 µM
- Drug uptake (Bone [36]): 1.82 % ID/g
- Drug uptake (Kidney [37]): 7.67 % ID/g
- Drug uptake (Liver [38]): 19.3 % ID/g
- Drug uptake (Liver [39]): 9.32 % ID/g
- Drug uptake (Blood [40]): 2.19 % ID/g
- Drug uptake (Bone [41]): 1.92 % ID/g
- Drug uptake (Spleen [42]): 2.14 % ID/g
- Kd [43]: 0.0454 µM
- Drug uptake (Kidney [44]): 13.9 % ID/g
- Drug uptake (Intestine [45]): 22.9 % ID/g
- Drug uptake (Lung [46]): 3.36 % ID/g
- Drug uptake (Pancreas [47]): 4.01 % ID/g
- Drug uptake (Bone [48]): 1.88 % ID/g

Structure (SMILES): CN(C)c1ccc(/N=N/c2nc3ccc(I)cc3s2)cc1
- Ki [49]: 0.00048 µM
- Ratio Ki (Homo sapiens [50]): 17.2

Structure (SMILES): CN(C)c1ccc(/N=N/c2nc3ccc(OCCOCCOCCF)cc3s2)cc1
- Activity (Homo sapiens [51]): Active
- Activity (Homo sapiens [52]): Active
- Bmax [53]: 38.9 pmol
- IC50 [54]: 0.0473 µM
- Ki [54]: 0.02 µM
- IC50 [49]: 0.256 µM
- Ki [49]: 0.013 µM
- Activity [55]: Active
- Ratio Ki (Homo sapiens [50]): 1.54
- Activity [56]: Active
- Bmax [57]: 45.8 pmol
